Reference: patent US20100267637A1, “TREATMENT OF MELANOMA WITH ALPHA THYMOSIN PEPTIDES IN COMBINATION WITH A KINASE INHIBITOR” (SciClone Pharmaceuticals, Inc., priority 2007, published 2010)

System: murine B16 melanoma cells
Assay: Anti-tumor effect: tumor size / tumor volume in mice bearing subcutaneous B16 melanoma
Type: in vivo, C57BL/6 mice
Parameters: key to Tumor measurement L (length) / Tumor measurement W (width): The sign “—” indicates that tumor does not reach a measurable size
Details: for Tumor Volume (cm^3) (Mean ± SD): group mean; for PI (TV), percent inhibition of tumor volume: vs vehicle; for Tumor volumes on Day 15: Length × Width × Width/2
Protocol: The toxic effects of the dosing regimens were also monitored. […] Meanwhile 9H10 was given in two groups via i.p. on Day 3, 6 and 9. […] Tumor volume and body weight were measured every three days, and tumor weights were measured on Day 16 at the end of the study.
As per aseptic tissue culture procedures, one vial of B16 melanoma cells was removed from the liquid nitrogen stock, and placed into a 37° C. water bath. Gentle swirling was conducted until the content of the vial was thawed. Using tissue culture/sterile procedures, the cells were immediately centrifuged with a TD5A-WS centrifuge at 1000 rpm, 20-25° C., 5 min. After centrifugation, the cells were suspended in 0.1 to 0.5 mL normal saline (NS) and subcutaneously injected into 10 mice (0.1 mL/mouse, about 1×10^6 cells). After 7-10 days, when the tumor diameter was approximately 1 cm, the animals were euthanized with CO2 overdose and the tumors excised. The procedure was repeated with 20 mice to generate a sufficient number of B16 melanoma cells with adequate transplantability.
On the day of tumor implantation, approximately 1×10^6 cells in 0.1 mL were subcutaneously injected on the right axillary area of each mouse. The day of tumor implantation was defined as Day 0.
On Day 3, the animals were randomly assigned into nine different weight-matched and tumor-size-matched groups. Dosing was started on Day 3 using the regimen according to Table 2.
From Day 1 to Day 15, mortality and moribundity were checked twice daily, the body weights were recorded once every 3 days, and tumors were measured using a caliper once every 3 days. At the end of the study (Day 16), the animals were euthanized by CO2 asphyxiation, and the tumors were excised and weighed.
Based on the tumor size, the tumor volume (TV) was calculated with the formula: [TV=(Length×Width×Width)/2]. And the percent inhibition (PI) of TV (PITV) was calculated according to the equation below:
PITV(%)=(TV vehicle−TVdrug treated)/TV vehicle×100
Inter-group comparison was performed in terms of tumor volume, tumor weight and body weight, using a student's t test. P values of less than 0.05 were considered to be statistically significant.

CNC(=O)c1cc(Oc2ccc(NC(=O)Nc3ccc(Cl)c(C(F)(F)F)c3)cc2)ccn1 [Sorafenib]
Tumor measurement L (length) (Day 3, animal F1): —
Tumor measurement W (width) (Day 3, animal F1): —
Tumor volume (Day 3, animal F1): 0.0000 cm^3
Tumor measurement L (length) (Day 3, animal F2): 0.20 cm
Tumor measurement W (width) (Day 3, animal F2): 0.20 cm
Tumor volume (Day 3, animal F2): 0.0040 cm^3
Tumor measurement L (length) (Day 3, animal F3): 0.10 cm
Tumor measurement W (width) (Day 3, animal F3): 0.10 cm
Tumor volume (Day 3, animal F3): 0.0005 cm^3
Tumor measurement L (length) (Day 3, animal F4): —
Tumor measurement W (width) (Day 3, animal F4): —
Tumor volume (Day 3, animal F4): 0.0000 cm^3
Tumor measurement L (length) (Day 3, animal F5): —
Tumor measurement W (width) (Day 3, animal F5): —
Tumor volume (Day 3, animal F5): 0.0000 cm^3
Tumor measurement L (length) (Day 3, animal M1): 0.20 cm
Tumor measurement W (width) (Day 3, animal M1): 0.20 cm
Tumor volume (Day 3, animal M1): 0.0040 cm^3
Tumor measurement L (length) (Day 3, animal M2): —
Tumor measurement W (width) (Day 3, animal M2): —
Tumor volume (Day 3, animal M2): 0.0000 cm^3
Tumor measurement L (length) (Day 3, animal M3): —
Tumor measurement W (width) (Day 3, animal M3): —
Tumor volume (Day 3, animal M3): 0.0000 cm^3
Tumor measurement L (length) (Day 3, animal M4): —
Tumor measurement W (width) (Day 3, animal M4): —
Tumor volume (Day 3, animal M4): 0.0000 cm^3
Tumor measurement L (length) (Day 3, animal M5): —
Tumor measurement W (width) (Day 3, animal M5): —
Tumor volume (Day 3, animal M5): 0.0000 cm^3
Tumor Volume (cm^3) (Mean ± SD) (Day 3): 0.001 ± 0.0017 cm^3
PI (TV), percent inhibition of tumor volume (Day 3): −750.00%
Tumor measurement L (length) (Day 6, animal F1): —
Tumor measurement W (width) (Day 6, animal F1): —
Tumor volume (Day 6, animal F1): 0.0000 cm^3
Tumor measurement L (length) (Day 6, animal F2): —
Tumor measurement W (width) (Day 6, animal F2): —
Tumor volume (Day 6, animal F2): 0.0000 cm^3
Tumor measurement L (length) (Day 6, animal F3): —
Tumor measurement W (width) (Day 6, animal F3): —
Tumor volume (Day 6, animal F3): 0.0000 cm^3
Tumor measurement L (length) (Day 6, animal F4): —
Tumor measurement W (width) (Day 6, animal F4): —
Tumor volume (Day 6, animal F4): 0.0000 cm^3
Tumor measurement L (length) (Day 6, animal F5): —
Tumor measurement W (width) (Day 6, animal F5): —
Tumor volume (Day 6, animal F5): 0.0000 cm^3
Tumor measurement L (length) (Day 6, animal M1): —
Tumor measurement W (width) (Day 6, animal M1): —
Tumor volume (Day 6, animal M1): 0.0000 cm^3
Tumor measurement L (length) (Day 6, animal M2): —
Tumor measurement W (width) (Day 6, animal M2): —
Tumor volume (Day 6, animal M2): 0.0000 cm^3
Tumor measurement L (length) (Day 6, animal M3): —
Tumor measurement W (width) (Day 6, animal M3): —
Tumor volume (Day 6, animal M3): 0.0000 cm^3
Tumor measurement L (length) (Day 6, animal M4): —
Tumor measurement W (width) (Day 6, animal M4): —
Tumor volume (Day 6, animal M4): 0.0000 cm^3
Tumor measurement L (length) (Day 6, animal M5): —
Tumor measurement W (width) (Day 6, animal M5): —
Tumor volume (Day 6, animal M5): 0.0000 cm^3
Tumor Volume (cm^3) (Mean ± SD) (Day 6): 0.000 ± 0.0000 cm^3
PI (TV), percent inhibition of tumor volume (Day 6): 100.00%
Tumor volume (Day 9, animal F1): 0.0000 cm^3
Tumor volume (Day 9, animal F2): 0.0000 cm^3
Tumor volume (Day 9, animal F3): 0.0000 cm^3
Tumor volume (Day 9, animal F4): 0.0000 cm^3
Tumor measurement L (length) (Day 9, animal F5): 0.10 cm
Tumor measurement W (width) (Day 9, animal F5): 0.10 cm
Tumor volume (Day 9, animal F5): 0.0005 cm^3
Tumor volume (Day 9, animal M1): 0.0000 cm^3
Tumor volume (Day 9, animal M2): 0.0000 cm^3
Tumor volume (Day 9, animal M3): 0.0000 cm^3
Tumor volume (Day 9, animal M4): 0.0000 cm^3
Tumor measurement L (length) (Day 9, animal M5): 0.10 cm
Tumor measurement W (width) (Day 9, animal M5): 0.10 cm
Tumor volume (Day 9, animal M5): 0.0005 cm^3
Tumor Volume (cm^3) (Mean ± SD) (Day 9): 0.000 ± 0.0002 cm^3
mean tumor volume compared with Group 1 (vehicle), statistics (Day 9, p<0.05): statistically significantly smaller than Group 1
PI (TV), percent inhibition of tumor volume (Day 9): 99.52%
Tumor measurements on Day 12, L (Day 12, animal F1): 0.30 cm
Tumor measurements on Day 12, W (Day 12, animal F1): 0.30 cm
Tumor volume (Day 12, animal F2): 0.0000 cm^3
Tumor measurements on Day 12, L (Day 12, animal F3): 0.30 cm
Tumor measurements on Day 12, W (Day 12, animal F3): 0.30 cm
Tumor measurements on Day 12, L (Day 12, animal F4): 0.30 cm
Tumor measurements on Day 12, W (Day 12, animal F4): 0.30 cm
Tumor measurements on Day 12, L (Day 12, animal F5): 0.30 cm
Tumor measurements on Day 12, W (Day 12, animal F5): 0.30 cm
Tumor volume (Day 12, animal M1): 0.0000 cm^3
Tumor measurements on Day 12, L (Day 12, animal M2): 0.30 cm
Tumor measurements on Day 12, W (Day 12, animal M2): 0.30 cm
Tumor volume (Day 12, animal M3): 0.0000 cm^3
Tumor volume (Day 12, animal M4): 0.0000 cm^3
Tumor measurements on Day 12, L (Day 12, animal M5): 0.30 cm
Tumor measurements on Day 12, W (Day 12, animal M5): 0.30 cm
Tumor Volume (cm^3) (Mean ± SD) (Day 12): 0.008 ± 0.0070 cm^3
PI (TV), percent inhibition of tumor volume (Day 12): 97.64%
Tumor measurements on Day 15, L (Day 15, animal F1): 0.60 cm
Tumor measurements on Day 15, W (Day 15, animal F1): 0.60 cm
Tumor measurements on Day 15, L (Day 15, animal F2): 0.40 cm
Tumor volumes on Day 15 (Day 15, animal F2): 0.0320 cm^3
Tumor measurements on Day 15, W (Day 15, animal F2): 0.40 cm
Tumor measurements on Day 15, L (Day 15, animal F3): 0.60 cm
Tumor measurements on Day 15, W (Day 15, animal F3): 0.60 cm
Tumor measurements on Day 15, L (Day 15, animal F4): 0.70 cm
Tumor volumes on Day 15 (Day 15, animal F4): 0.0875 cm^3
Tumor measurements on Day 15, W (Day 15, animal F4): 0.50 cm
Tumor measurements on Day 15, L (Day 15, animal F5): 0.50 cm
Tumor volumes on Day 15 (Day 15, animal F5): 0.0625 cm^3
Tumor measurements on Day 15, W (Day 15, animal F5): 0.50 cm
Tumor measurements on Day 15, L (Day 15, animal M1): 0.20 cm
Tumor volumes on Day 15 (Day 15, animal M1): 0.0040 cm^3
Tumor measurements on Day 15, W (Day 15, animal M1): 0.20 cm
Tumor measurements on Day 15, L (Day 15, animal M2): 0.50 cm
Tumor volumes on Day 15 (Day 15, animal M2): 0.0625 cm^3
Tumor measurements on Day 15, W (Day 15, animal M2): 0.50 cm
Tumor measurements on Day 15, L (Day 15, animal M3): 0.20 cm
Tumor volumes on Day 15 (Day 15, animal M3): 0.0040 cm^3
Tumor measurements on Day 15, W (Day 15, animal M3): 0.20 cm
Tumor measurements on Day 15, L (Day 15, animal M4): 0.30 cm
Tumor measurements on Day 15, W (Day 15, animal M4): 0.30 cm
Tumor measurements on Day 15, L (Day 15, animal M5): 0.50 cm
Tumor volumes on Day 15 (Day 15, animal M5): 0.0625 cm^3
Tumor measurements on Day 15, W (Day 15, animal M5): 0.50 cm
Tumor Volume (cm^3) (Mean ± SD) (Day 15): 0.054 ± 0.0399 cm^3
PI (TV), percent inhibition of tumor volume (Day 15): 92.56%
effect on tumor growth in words (daily dosing Days 3-15): effective towards the tumor inhibition
